Experiment [1] deals with T1, WT STING (Homo sapiens, UniProt Q86WV6, H232R). The experiment is described as follows: Digitonin assay using 293T wtSTING-FL reporter cells. Conditions: 293T wtSTING-FL cells; 30 minutes in Digitonin buffer, then 5 hours; ISRE firefly luciferase reporter. It is filed as cell-based. An excerpt: (§1) Two complementary oligonucleotides of the sequence […] […] […] […] […] The oligonucleotides were mixed in equal molar amounts, hybridized, and cleaved by restriction endonucleases HindIII (cat. #. R0104S, NEB, Ipswich, USA) and BglII (cat. # R0144S, NEB, Ipswich, USA). Ultimately, they were ligated into plasmid pGL4.27 (cat. # E6651, Promega, Madison, USA) linearized with the same enzymes. As result the sequence with four ISRE sites was placed upstream of the minimum promoter of firefly luciferase reporter gene.
(§2) After 5 minutes incubation at room temperature (RT), 250 µL of the mixture was added dropwise to the cells in one well. Cells were incubated 36 hours at 37° C. with 5% CO2, and then detached with 0.05% Trypsin and 0.22 g/L EDTA (both cat. # L0941, Biowest, Riverside, USA).
(§3) Transfected cells were seeded onto poly-D-lysine coated six well plates at density 50,000 cells per 1 cm^2 in DMEM medium with high glucose containing 10% heat inactivated FBS, 30 µg/mL blasticidin (cat. # ant-bl-05, InvivoGen, San Diego, USA), 0.06 mg/ml Penicillin G and 0.1 mg/ml Streptomycin Sulfate (both cat. #. L0018, Biowest, Riverside, USA). The medium was replenished every 3 - 4 days until visible colonies of cells resistant to blasticidin were formed.
(§4) Blasticidin resistant cells stably expressing WT STING were further transfected with […] plasmid following the same procedure as described above. […] Homogeneous culture of stably double transfected cells was prepared by limiting dilution of cells in 96 well plates and wells with cells were selected that originated from a single cell.
The medium was removed next day and three fold serial dilutions of compounds in Digitonin buffer containing 50 mmol.l^-1 HEPES (cat. # H3375, Sigma Aldrich, Czech Republic) pH 7.0, 100 mmol.1^-1 KCl, 3 mmol.l^-1 MgCl2, 0.1 mmol.l^-1 DTT (cat. # D0632, Sigma Aldrich, Czech Republic), 85 mmol.1^-1 Sucrose (cat. # S7903, Sigma Aldrich, Czech Republic), 0.2% BSA (cat. # A2153, Sigma Aldrich, Czech Republic), 1 mmol.l^-1 ATP (cat. # A1852, Sigma Aldrich, Czech Republic), 0.1 mmol.1^-1 GTP (cat. # G8877, Sigma Aldrich, Czech Republic), and 10 µg/mL Digitonin A (cat. # D141, Sigma Aldrich, Czech Republic) were added to the cells. The buffer was removed after 30 minutes incubation at 37° C. with 5% CO2, the cells were washed once with 100 µl of cultivation medium, and 100 µl of medium was added to each well. The plates with cells were incubated for 5 hours at 37° C. with 5% CO2, 50µl of the medium was removed and 30 µl of ONE-Glo^Tm Luciferase Assay System reagent (cat. # E6120, Promega, Madison, USA) was added to each well. Luminescence was read on Synergy H1 (Biotek, Winooski, USA).
Target sequence in this assay (Q86WV6 whole entry H232R): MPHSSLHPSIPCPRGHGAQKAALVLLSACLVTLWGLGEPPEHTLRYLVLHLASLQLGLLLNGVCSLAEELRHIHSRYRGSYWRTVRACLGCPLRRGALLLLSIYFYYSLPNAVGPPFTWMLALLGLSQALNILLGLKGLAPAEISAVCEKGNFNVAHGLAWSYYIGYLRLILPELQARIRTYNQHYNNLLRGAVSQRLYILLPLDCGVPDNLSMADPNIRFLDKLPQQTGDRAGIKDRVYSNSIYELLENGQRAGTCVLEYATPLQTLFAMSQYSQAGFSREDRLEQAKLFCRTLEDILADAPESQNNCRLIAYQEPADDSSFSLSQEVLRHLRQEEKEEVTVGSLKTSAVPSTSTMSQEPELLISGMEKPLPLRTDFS

In experiment [2] the target is T1, WT STING. The experiment is described as follows: 293T WT STING standard reporter assay. Format: cell-based. Conditions: 293T wtSTING-FL cells; 7 hours with compound, no digitonin; ISRE firefly luciferase reporter.
Excerpt: as §1, §2, §3, §4
Target sequence in this assay (Q86WV6 whole entry H232R): as above
The medium was removed next day and three-fold serial dilutions of compounds in 100 µl medium were added to the cells. The plates with cells were incubated for 7 hours at 37° C. with 5% CO2. After 50 µl of the medium was removed, 30 µl of ONE-Glo^Tm Luciferase Assay System reagent (cat. # E6120, Promega, Madison, USA) was added to each well and luminescence was read on Synergy H1 (Biotek, Winooski, USA).

Experiment [3] has as its target T1, WT STING. The experiment is described as follows: Differential Scanning Fluorimetry with WT STING. It is filed as binding. More on the design: 8xHis (N, cleaved yes); SUMO (N, cleaved yes); made in house; host or cells: E. coli Rosetta-gami B (DE3). The note with it: thermal shift vs apoprotein; 150 µM CDN; truncated human WT STING 0.1 mg/ml; read-out: DSF ΔTm WT STING. The text has this: (§5) Purified PCR products were cleaved with restriction enzymes BamHI (cat. # R0136S, NEB, Ipswich, USA) and NotI (cat. # R0189S, NEB, Ipswich, USA) and cloned into the pSUMO vector linearized with the identical enzymes.
(§6) Bacterial pellets were re-suspended in ice-cold lysis buffer containing 50 mmol.1^-1 TrisCl (cat. # T1503, Sigma Aldrich, Czech Republic) pH 8.0, 300 mmol.1^-1 NaCl, 3 mmol.1^-1 β-mercaptoethanol (cat. # M6250, Sigma Aldrich, Czech Republic), 10% glycerol (cat. # G5516, Sigma Aldrich, Czech Republic) and 20 mmol.1^-1 imidazole (cat. # I5513, Sigma Aldrich, Czech Republic) using Dounce homogenizer. DNase I (cat. # D5025, Sigma Aldrich, Czech Republic) and RNase A (cat. # R6513, Sigma Aldrich, Czech Republic) were added (final concentration 50 µg/ml) together with MgCl2 (final concentration 5 mmol.l^-1) to the homogenate and bacteria were lysed using French Press G-M™ High-Pressure Cell Press Homogenizer (1500 psi, 3 cycles). […] The resin was poured into a chromatography column, washed with 50 ml buffer A (50 mmol.1^-1 TrisCl (pH 8.0), 800 mmol.1^-1 NaCl, 3 mmol.1^-1 β-mercaptol; 10% glycerol; 20 mmol.1^-1 imidazole) and 8-His-SUMO tagged STING proteins were eluted with 15 ml buffer A containing 300 mmol.1^-1 imidazole. […] Proteins were concentrated with Amicon® Ultra-15 10 K device (cat. # UFC901008, Merck Millipore, Billerica, USA) and flash frozen in liquid N2.
(§7) 20 µL solutions of the reaction mixtures were pipetted in triplicates into 96 well optical reaction plates and thermal denaturation of samples were performed on real time PCR cycler (LightCycler® 480 Instrument II - Roche, Basel, Switzerland). The first derivative of the thermal denaturation curves was performed to calculate denaturing temperatures of STING - CDN complexes and STING apoproteins. The thermal shift for each CDN was calculated by subtracting the average denaturing temperature of STING apoprotein from the average denaturing temperature of STING CDN complex.
Target sequence in this assay (Q86WV6 140-343 H232R): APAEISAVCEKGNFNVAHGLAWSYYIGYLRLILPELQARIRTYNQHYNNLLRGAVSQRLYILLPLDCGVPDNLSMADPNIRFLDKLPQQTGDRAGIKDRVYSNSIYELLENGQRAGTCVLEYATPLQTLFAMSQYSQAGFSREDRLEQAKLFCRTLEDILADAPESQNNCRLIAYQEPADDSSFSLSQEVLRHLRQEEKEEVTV

In a further experiment the target is T2, AQ STING (G230A-R293Q) (Homo sapiens, UniProt Q86WV6, G230A/H232R/R293Q).
T2 construct: 8xHis (N, cleaved yes); SUMO (N, cleaved yes); made in house; host or cells: E. coli Rosetta-gami B (DE3)
Description: Differential Scanning Fluorimetry with AQ STING. Format: binding. Conditions: thermal shift vs apoprotein; 150 µM CDN; truncated human AQ STING 0.1 mg/ml; read-out: DSF ΔTm AQ STING.
Excerpt: as §5, §6, §7

Experiment [4] concerns peripheral blood mononuclear cell (PBMC). Description: Peripheral blood mononuclear cell assay. It is filed as cell-based. Conditions: PBMC, 1h with compound, washed, 15 hour incubation. On the procedure:
Selected compounds were tested in an in vitro peripheral blood mononuclear cell (PBMC) assay. Freshly isolated PBMCs were seeded into U-shaped shaped 96-well plates at desity 500,000 cells per well in 50 µl of RPMI 1640 medium supplemented with 10% heat inactivated FBS. Serially dilluted tested compounds were added to wells in 50 µl of cultivation medium and cell were incubated with compounds for 1h at 37° C. with 5% CO2. Plates with cells were then spun 500 g for 5 minutes and medium was removed. Cells were washed twice with the cell culture medium by the use of centrifugation and gently resuspended in 100 µl medium without compounds. After 15 hour incubation at 37° C. with 5% CO2, the cell culture medium was collected and the levels of interferon-alpha (INF-α), interferon-gamma (INF-γ) and tumor necrosis factor-alpha (TNF-α) were determined with ProcartaPlex Assays (ThermoFisher, Waltham, USA) and MAGPIX System (Merck KGaA, Darmstadt, Germany).

Setting [5] is: IFN-α level in medium, read-out: PBMC EC50 IFN-α.
Where [6] appears, read: IFN-γ level in medium, read-out: PBMC EC50 IFN-γ.
Where [7] appears, read: TNF-α level in medium, read-out: PBMC EC50 TNF-α.

Where two headings read alike, the source gives them in different places.

T2 sequence (Q86WV6 140-343 G230A/H232R/R293Q): as the sequence (Q86WV6 140-343 H232R) above, with G91A, R154Q counted along it

As to `Nc1ncnc2c1ncn2[C@@H]1O[C@@H]2COP(=O)(O)O[C@H]3C[C@H](n4cnc5c(N)ncnc54)O[C@@H]3/C=C/P(=O)(O)O[C@H]2[C@H]1F` [Compound 61, (1S,6R,8R,9R,10R,13E,15R,17R)-8,17-bis(6-amino-9H-purin-9-yl)-9-fluoro-3,12-dihydroxy-2,4,7,11,16-pentaoxa-3λ^5,12λ^5-diphosphatricyclo[13.3.0.0^6,10]octadec-13-ene-3,12-dione], the figures for the EC50 at WT STING [1] and at WT STING [2] were 750 nM and greater than 200000 nM, respectively.
Consider `Nc1nc(N)c2ncn([C@@H]3O[C@@H]4COP(=O)(O)O[C@H]5[C@@H](O)[C@H](n6cnc7c(=O)[nH]c(N)nc76)O[C@@H]5/C=C\P(=O)(O)O[C@H]4[C@H]3F)c2n1` [Compound 65, (1S,6R,8R,9R,10R,13Z,15R,17R,18R)-17-(2-amino-6-oxo-6,9-dihydro-1H-purin-9-yl)-8-(2,6-diamino-9H-purin-9-yl)-9-fluoro-3,12,18-trihydroxy-2,4,7,11,16-pentaoxa-3λ^5,12λ^5-diphosphatricyclo[13.3.0.0^6,^10]octadec-13-ene-3,12-dione], for which the ΔTm at 150 µM at WT STING [3] was 3.1 °C; at AQ STING (G230A-R293Q) it was 8 °C. In addition, the EC50 on WT STING [1] came out at 5000 nM.
In the case of `Nc1nc(N)c2ncn([C@@H]3O[C@@H]4COP(=O)(O)O[C@H]5[C@@H](O)[C@H](n6cnc7c(=O)[nH]c(N)nc76)O[C@@H]5/C=C\P(=O)(O)O[C@H]4[C@H]3O)c2n1` (stereo in doubt) [Compound 69, (1S,6R,8R,9R,10S,15R,17R,18R)-17-(2-amino-6-oxo-6,9-dihydro-1H-purin-9-yl)-8-(2,6-diamino-9H-purin-9-yl)-3,9,12,18-tetrahydroxy-2,4,7,11,16-pentaoxa-3λ^5,12λ^5-diphosphatricyclo[13.3.0.0^6,^10]octadec-13-ene-3,12-dione], the ΔTm at 150 µM at WT STING [3] is 1.2 °C; on AQ STING (G230A-R293Q), 3.5 °C. The EC50 on WT STING [1] stood at 32800 nM.
For the compound `Nc1ncnc2c1ncn2[C@@H]1O[C@@H]2/C=C/P(=O)(O)O[C@H]3C[C@H](n4cnc5c(N)ncnc54)O[C@@H]3COP(=O)(O)O[C@H]2[C@H]1F` [Compound 60, (1R,6R,8R,10S,13E,15R,17R,18R)-8,17-bis(6-amino-9H-purin-9-yl)-18-fluoro-3,12-dihydroxy-2,4,7,11,16-pentaoxa-3λ^5,12λ^5-diphosphatricyclo[13.3.0.0^6,^10]octadec-13-ene-3,12-dione], the EC50 in experiment [4] (setting [5]) was greater than 500000 nM; in experiment [4] (setting [6]) it was 164000 nM; in experiment [4] (setting [7]), 100000 nM; on WT STING [1] it was 280 nM; at WT STING [2], 71800 nM.
For the compound `Nc1nc2c(ncn2[C@@H]2O[C@@H]3COP(=O)(O)O[C@H]4C[C@H](n5cnc6c(N)ncnc65)O[C@@H]4/C=C/P(=O)(O)O[C@H]3[C@H]2F)c(=O)[nH]1` [Compound 59, (1S,6R,8R,9R,10R,13E,15R,17R)-8-(2-amino-6-oxo-6,9-dihydro-1H-purin-9-yl)-17-(6-amino-9H-purin-9-yl)-9-fluoro-3,12-dihydroxy-2,4,7,11,16-pentaoxa-3λ^5, 12λ^5-diphosphatricyclo[13.3.0.0^6,^10]octadec-13-ene-3,12-dione], the EC50 at WT STING [1] amounted to 700 nM.
For `CC(C)(C)C(=O)OCOP1(=O)/C=C/[C@H]2O[C@@H](n3cnc4c(N)ncnc43)[C@H](F)[C@@H]2OP(=O)(OCOC(=O)C(C)(C)C)OC[C@H]2O[C@@H](n3cnc4c(N)ncnc43)[C@H](F)[C@@H]2O1` (single isomer, unassigned) [Compound 80c], the EC50 in experiment [4] (setting [5]) is 100 nM; in experiment [4] (setting [6]) it was 180 nM; in experiment [4] (setting [7]) it was 100 nM; at WT STING [2], 12 nM.
Consider `CC(C)(C)C(=O)OCOP1(=O)/C=C/[C@H]2O[C@@H](n3cnc4c(N)ncnc43)[C@H](F)[C@@H]2OP(=O)(OCOC(=O)C(C)(C)C)OC[C@H]2O[C@@H](n3cnc4c(N)ncnc43)C[C@@H]2O1` (stereo partly drawn) [Compound 86, {[(1R,6R,8R,10S,13E,15R,17R,18R)-8,17-bis(6-amino-9H-purin-9-yl)-3-{[(2,2-dimethylpropanoyl)oxy]methoxy}-18-fluoro-3,12-dioxo-2,4,7,11,16-pentaoxa-3λ^5,12λ^5-diphosphatricyclo[13.3.0.0^6,^10]octadec-13-en-12-yl]oxy}methyl 2,2-dimethylpropanoate], for which the EC50 is 600 nM in experiment [4] (setting [5]), 1600 nM in experiment [4] (setting [6]), 800 nM in experiment [4] (setting [7]) and 10 nM on WT STING [2].
